Target: Carbonic anhydrase 9 (Homo sapiens, UniProt Q16790)
Test: Inhibition of human CA IX assessed as inhibition constant by stopped-flow CO2 hydrase assay method

Ki: 3.2 nM
SMILES: COc1cc2c(cc1OC)-c1c(c(C(=O)Nc3ccc(S(N)(=O)=O)cc3)nn1C)C2

From ChEMBL document CHEMBL5537176, “Discovery of Novel Pyridazine-Tethered Sulfonamides as Carbonic Anhydrase II Inhibitors for the Management of Glaucoma” (J Med Chem, 2024)
